Test results from patent US8563715B2, “Pyrimidine derivative having cell protecting effect and uses thereof” (Zenyaku Kogyo Kabushikikaisha, priority 2008, dated 2013).

Tests used:
[1] = tested on: neurons in astrocyte/neuron co-culture; assay: Brain cell damage induced by hydrogen peroxide treatment (neuroprotective effect, microscope observation); format: cell-based; settings: Rattus norvegicus, hydrogen peroxide (250 μM), 24 hours, read-out: Concentration for complete inhibition of neuronal death
Description: The brain was removed from 1 to 2 day old Wistar rats (Charles River) or Sprague-Dawley (IGS) rats (Charles River), and the cerebral cortex including the hippocampus was excised under ice cooling. After this cerebral cortex was minced, it was digested with papain solution (9 U/ml) containing DNase I (30 U/ml) at 37 degrees Celsius for 15 minutes, dispersing the cells. After further carrying out mechanical dispersing by pipetting, it was passed through a cell strainer with a pore size of 70 μm, and a cell suspension was obtained. Cells derived from 1.4 cerebra were seeded on 150 mm tissue culture dish (Iwaki Glass), and primary culture was carried out at 37 degrees Celsius and 5% CO2 using a D-MEM medium (Invitrogen) containing 10% heat-inactivated fetal calf serum (JRH). One day after the start of the culture, the nonadherent cells were removed, and the primary cultured astrocytes were obtained by continuing the culture for 4 to 5 further days. The primary cultured astrocytes were dispersed by trypsin treating, suspended in cryopreservation solution, and cryopreserved.
After thawing the cryopreserved primary cultured astrocytes, they were seeded on tissue culture plates (Iwaki Glass), and a confluent astrocyte layer was produced by a further 7 days of secondary culture using a D-MEM medium containing 10% heat-inactivated fetal calf serum. Neurons to be used in the co-culture with the astrocyte layer were obtained from fetal rat cerebrum. Briefly, brains were removed from Wistar rats (Charles River) or Sprague-Dawley (IGS) rats (Charles River) of embryonic age 18.5 days, and the cerebral cortex including the hippocampus was excised under ice cooling. After this cerebral cortex was minced, it was digested in papain solution (9 U/ml) containing DNase I (30 U/ml) at 37 degrees Celsius for 15 minutes, dispersing the cells. After further carrying out mechanical dispersing by pipetting, it was passed through a cell strainer with a pore size of 70 μm, and a cell suspension was obtained. This cell suspension was plated at a density of 1.3×10^5 cells/cm^2 on the astrocyte layer, and a co-culture was carried out using D-MEM/F-12 medium (Invitrogen) containing 10% heat-inactivated fetal calf serum and 5% horse serum (Invitrogen). 2 days after the start of the co-culture, cells were treated for 24 hours with 10 μM cytosine arabinoside in order to suppress the excessive cell proliferation of microglia and the like. 8 to 9 days after the start of the co-culture, cells were used for the test. Additionally, using one portion of the cells, immunofluorescent staining and nuclear staining was carried out with astrocyte recognizing antibodies (anti-GFAP) and neuron recognizing antibodies (anti-MAP2), in order to confirm that the present culture system is a co-culture system of astrocytes and neurons.
An astrocyte/neuron co-culture cultured on a 96 well plate was used in the test. A predetermined concentration of the test substance and hydrogen peroxide (250 μM) was simultaneously added to the cell culture in each well with continuing cultivation, and analysis was done 24 hours after this treatment. Using an LDH Cytotoxicity Detection Kit (Takara Bio), analysis was carried out in accordance with the included instruction manual, and the damage to the entire co-culture system by the hydrogen peroxide treatment and the protective effect (EC 50 value) of the test substance was evaluated. Further, the cell bodies and the neuronal processes of the neurons were observed by microscope, and the neuroprotective effect was evaluated.

[2] = tested on: rat brain homogenate (lipid peroxide production); assay: Antioxidant activity test (rat brain homogenate autoxidation test); format: biochemical; settings: lipid peroxide production suppression, 2 hours at 37 degrees Celsius, thiobarbituric acid method
Description: The cerebrum was removed from 7 to 11 week old male Wistar rats (Nihon Ikagaku) or male Sprague-Dawley (IGS) rats (Charles River), physiological saline was added, and a 20% brain homogenate was made. 4 μl of test compound dissolved in DMSO was mixed with 200 μl of brain homogenate and 200 μl of PBS (−) (diluted 100 times), incubated for 2 hours at 37 degrees Celsius and shaken at a rate of 160 times per minute, thereby producing a lipid peroxide. After cooling for 5 minutes, the produced lipid peroxide was measured as a thiobarbituric acid reactive substance by using the thiobarbituric acid method. Briefly, 100 μl of 8.1% dodecyl sulfate, 750 μl of 20% acetic acid adjusted to a pH of 3.5, and 750 μl of 0.8% thiobarbituric acid were added, and boiled for 60 minutes, and then cooled. Next, 500 μl of distilled water and 2.5 ml of N-butanol/pyridine (15:1) were added and after 5 minutes of shaking, the supernatant was taken after centrifuging for 10 minutes at 3000 rpm, and the absorbance at 532 nm was measured. The number of examples was 2 examples. Calculation was done of the (absorbance at each concentration/absorbance of a solvent control)×100, and after logit transformation, the lipid peroxide production suppression effect (IC 50 value) was calculated as an indicator of antioxidant activity.

[3] = tested on: astrocyte/neuron co-culture; assay: Brain cell damage induced by hydrogen peroxide treatment (LDH assay); format: cell-based; settings: Rattus norvegicus, hydrogen peroxide (250 μM), 24 hours, read-out: 50% inhibition concentration against cell damage in entire co-culture system (EC50 value)
Outline: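 Rat primary cortical/hippocampal co-cultures were used 8–9 days after plating neurons (E18.5) on neonatal astrocyte layers. Test substance was added together with 250 μM hydrogen peroxide, and cells were analysed 24 h later. LDH release gave EC50 for protection of the whole co-culture, and microscopy of neuronal cell bodies and processes gave neuroprotection.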

SMILES | EC100 [1] | IC50 [2] | EC50 [3]
CNc1nc(/C=C/c2ccc(OC)cc2)nc(N2CCOCC2)c1N [Compound 139, 5-amino-2-[2-(4-methoxyphenyl)vinyl]-4-methylamino-6-morpholinopyrimidine] | 3 µM | 110 nM | 1150 nM
Cn1c(/C=C/c2nc(N3CCOCC3)c(N)c(N3CCOCC3)n2)cc2sccc21 [Compound 133, 5-amino-2-[2-(4-methylthiopheno[1,2-b]pyrrol-5-yl)vinyl]-4,6-dimorpholinopyrimidine] | 30 µM | 1040 nM | 2030 nM
COc1ccc(/C=C/c2nc(N3CCOCC3)c(N)c(N3CCC(N)CC3)n2)cc1 [Compound 196, 5-amino-4-(4-aminopiperidin-1-yl)-2-[2-(4-methoxyphenyl)vinyl]-6-morpholinopyrimidine] | 10 µM | 2730 nM | 3780 nM
COc1ccc(/C=C/c2nc(N3CCOCC3)c(N)c(N3CCN(CCN(C)C)CC3)n2)cc1 [Compound 175, 5-amino-2-[2-(4-methoxyphenyl)vinyl]-4-[4-(2-dimethylaminoethyl-piperazin-1-yl)]-6-morpholinopyrimidine] | 10 µM | 2080 nM | 3240 nM
COc1ccc(CCc2nc(N3CCNCC3)c(N)c(N3CCOCC3)n2)cc1 [Compound 199, 5-amino-2-[2-(4-methoxyphenyl)ethyl]-4-(1-piperazinyl)-6-morpholinopyrimidine] | 10 µM | 8120 nM | 3050 nM
Fc1c(N2CCOCC2)nc(N2CCN(c3ccccc3)CC2)nc1N1CCOCC1 [Compound 82, 5-fluoro-4,6-dimorpholino-2-(4-phenylpiperazin-1-yl)pyrimidine] | 3 µM | 9200 nM | 600 nM
Cc1ccc(N2CCN(c3nc(N4CCNCC4)nc(N4CCOCC4)c3F)CC2)cc1 [Compound 149, 5-fluoro-4-[4-(4-methylphenyl)piperazin-1-yl]-6-morpholino-2-(1-piperazinyl)pyrimidine] | 10 µM | 9750 nM | 420 nM
Nc1c(N2CCOCC2)nc(/C=C/c2ccc(N3CCCCC3)cc2)nc1N1CCOCC1 [Compound 136, 5-amino-4,6-dimorpholino-2-[2-(4-piperidinophenyl)vinyl]pyrimidine] | 3 µM | 1690 nM | 730 nM
COc1ccc(C=Cc2nc(N3CCOCC3)c(N)c(N3CCOCC3)n2)cc1 [Compound 131, 5-amino-2-[2-(4-methoxyphenyl)vinyl]-4,6-dimorpholinopyrimidine] | 10 µM | 7040 nM | 8990 nM
COc1ccc(/C=C/c2nc(NCC(=O)OC(C)(C)C)c(N)c(N3CCOCC3)n2)cc1 [Compound 197, 5-amino-4-(4-tert-butoxycarbonylmethylamino)-2-[2-(4-methoxyphenyl)vinyl]-6-morpholinopyrimidine] | 3 µM | 990 nM | 550 nM
Fc1c(N2CC=C(c3ccccc3)CC2)nc(N2CCOCC2)nc1N1CCOCC1 [Compound 121, 5-fluoro-2,4-dimorpholino-6-(4-phenyl-1,2,5,6-tetrahydropyridin-1-yl)pyrimidine] | 1 µM | 5050 nM | 320 nM
